{"source": "patent US5663207A", "about": "“Gem-dichlorocyclopropanes as antitumor agents” (priority 1995, dated 1997)", "key": {"estrogen receptor": {"molecular_target": "T1, estrogen receptor (Rattus norvegicus, UniProt P06211)", "T1 construct": "ovariectomized rat uterine cytosolic estrogen receptor preparation; from tissue; host or cells: uterine cytosol of ovariectomized Sprague-Dawley rats (immature rats from Sasco are named as uterus source, mature ovariectomized rats)", "T1 sequence (P06211 1-600)": "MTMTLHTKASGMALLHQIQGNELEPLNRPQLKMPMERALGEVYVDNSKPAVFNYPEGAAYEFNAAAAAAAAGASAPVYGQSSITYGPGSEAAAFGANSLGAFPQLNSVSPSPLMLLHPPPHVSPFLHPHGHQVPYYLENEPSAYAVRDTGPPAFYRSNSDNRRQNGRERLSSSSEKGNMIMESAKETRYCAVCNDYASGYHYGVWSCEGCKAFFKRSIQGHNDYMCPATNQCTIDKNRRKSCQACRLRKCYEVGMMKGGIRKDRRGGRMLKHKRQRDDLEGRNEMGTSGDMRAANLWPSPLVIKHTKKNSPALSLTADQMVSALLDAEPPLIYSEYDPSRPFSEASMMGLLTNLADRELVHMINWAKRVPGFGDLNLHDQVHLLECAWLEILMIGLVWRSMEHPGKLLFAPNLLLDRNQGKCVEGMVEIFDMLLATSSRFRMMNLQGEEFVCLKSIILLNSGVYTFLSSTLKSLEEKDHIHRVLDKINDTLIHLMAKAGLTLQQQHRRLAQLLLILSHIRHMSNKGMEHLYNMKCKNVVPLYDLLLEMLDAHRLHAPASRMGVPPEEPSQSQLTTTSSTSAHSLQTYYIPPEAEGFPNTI", "settings": "cited from earlier work"}, "[1]": {"test_system": "Immature Swiss-Webster female mice (estradiol-stimulated uterine weight)", "assay": "Antiuterotrophic assay for antiestrogenic activity in immature mice", "type": "in vivo, mouse (Swiss-Webster)", "settings": "0.4, 0.8, and 1.6 mg; three-day assay; estradiol 0.03 μg", "text": "The biological evaluation of the test compounds consisted of the in vitro rat cytosolic estradiol receptor binding assay, the in vivo immature mouse uterotrophic (estrogenic) and antiuterotrophic (antiestrogenic) assays, and the in vitro suppression of the proliferation of the ER positive MCF-7 human breast cancer cell line.\nVital-free immature female Swiss-Webster mice were obtained at 17-19 days of age from Sasco weighing 8-10 g, and were used in the uterotrophic and antiuterotrophic assays. Immature female Sprague-Dawley rats, obtained at 17-19 days of age from Sasco, weighing 28-33 g, were used as sources of uteri for the estradiol receptor binding assay. Animals were housed in wire topped polycarbonate cages at six animals per cage, with the environment controlled at 25° C. and a 12 h light/dark cycle. […]\nThe antiestrogenic assay was conducted as described for the estrogenic assay, except that each mouse in the cyclopropyl treatment groups received a standard stimulating dose of estradiol (0.03 μg) in sesame oil (0.1 mL) and the test compounds or MER 25 were administered in isopropyl myristate (0.05 mL) in a dosage range of 0.4, 0.8 and 1.6 mg (total dose). […] Antiestrogenic activity was measured as a decrease in the estradiol-stimulated […] response in groups that received both the test compound and estradiol as compared to the group treated only with estradiol."}}, "data": [{"smiles": "CCN(CC)CCOc1ccc(C(O)(Cc2ccc(OC)cc2)c2ccccc2)cc1", "note": "(stereo not drawn) [MER-25]", "values": [{"measurement": "RBA (relative binding affinity)", "setting": "estrogen receptor; relative to estradiol = 100%, footnote e, Day et al. (1991)", "result": "--^e (Less than 0.01%.)"}, {"measurement": "[3H]-estradiol displacement curve (in words)", "setting": "estrogen receptor; standards, Day et al., 1991", "result": "very weak dose-related displacement"}, {"measurement": "antiestrogenic activity: effect on estradiol-induced uterine weight gain (in words)", "setting": "[1]", "result": "significant reduction in estradiol-induced uterotrophic activity"}]}]}
